ChEMBL document CHEMBL1149131, “QSAR study of anticonvulsant negative allosteric modulators of the AMPA receptor” (J Med Chem, 2004)

Experiments:
[1] = target: T1, Glutamate receptor ionotropic, AMPA (Mus musculus) (UniProt P23819+P23818+Q9Z2W8+Q9Z2W9); experiment: In vivo anticonvulsant activity was measured as median effective dose required to prevent clonic phase of seizure in DBA/2 mice; format: functional, organism-based
[2] = target: T1, Glutamate receptor ionotropic, AMPA (Mus musculus); experiment: In vivo anticonvulsant activity was measured as median effective dose required to prevent tonic phase of seizure in DBA/2 mice; format: functional, organism-based

T1 sequence (P23818 whole entry, looked up): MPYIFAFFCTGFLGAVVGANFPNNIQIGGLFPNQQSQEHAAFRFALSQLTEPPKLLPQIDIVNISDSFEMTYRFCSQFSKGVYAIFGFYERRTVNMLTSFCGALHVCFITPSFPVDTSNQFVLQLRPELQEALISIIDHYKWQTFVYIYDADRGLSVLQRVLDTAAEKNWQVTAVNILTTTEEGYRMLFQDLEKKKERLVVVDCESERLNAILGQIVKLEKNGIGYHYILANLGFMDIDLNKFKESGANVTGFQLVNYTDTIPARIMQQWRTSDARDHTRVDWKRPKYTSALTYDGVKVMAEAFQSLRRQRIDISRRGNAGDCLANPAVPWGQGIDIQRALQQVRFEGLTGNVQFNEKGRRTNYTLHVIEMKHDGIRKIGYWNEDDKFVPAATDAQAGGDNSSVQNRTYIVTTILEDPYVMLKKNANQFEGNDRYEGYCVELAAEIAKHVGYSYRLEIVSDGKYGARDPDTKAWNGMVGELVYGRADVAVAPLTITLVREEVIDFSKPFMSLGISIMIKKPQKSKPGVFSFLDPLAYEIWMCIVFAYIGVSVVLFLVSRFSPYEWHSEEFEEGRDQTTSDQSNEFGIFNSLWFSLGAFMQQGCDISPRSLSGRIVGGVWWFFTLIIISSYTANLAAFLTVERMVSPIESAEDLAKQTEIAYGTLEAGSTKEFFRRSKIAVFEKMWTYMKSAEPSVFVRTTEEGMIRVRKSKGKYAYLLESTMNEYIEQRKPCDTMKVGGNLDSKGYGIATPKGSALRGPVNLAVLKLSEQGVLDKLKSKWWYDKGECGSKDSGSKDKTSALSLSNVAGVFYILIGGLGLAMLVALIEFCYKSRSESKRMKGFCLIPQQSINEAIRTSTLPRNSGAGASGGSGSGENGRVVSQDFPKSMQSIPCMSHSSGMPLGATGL
T1 sequence (P23819 whole entry, looked up): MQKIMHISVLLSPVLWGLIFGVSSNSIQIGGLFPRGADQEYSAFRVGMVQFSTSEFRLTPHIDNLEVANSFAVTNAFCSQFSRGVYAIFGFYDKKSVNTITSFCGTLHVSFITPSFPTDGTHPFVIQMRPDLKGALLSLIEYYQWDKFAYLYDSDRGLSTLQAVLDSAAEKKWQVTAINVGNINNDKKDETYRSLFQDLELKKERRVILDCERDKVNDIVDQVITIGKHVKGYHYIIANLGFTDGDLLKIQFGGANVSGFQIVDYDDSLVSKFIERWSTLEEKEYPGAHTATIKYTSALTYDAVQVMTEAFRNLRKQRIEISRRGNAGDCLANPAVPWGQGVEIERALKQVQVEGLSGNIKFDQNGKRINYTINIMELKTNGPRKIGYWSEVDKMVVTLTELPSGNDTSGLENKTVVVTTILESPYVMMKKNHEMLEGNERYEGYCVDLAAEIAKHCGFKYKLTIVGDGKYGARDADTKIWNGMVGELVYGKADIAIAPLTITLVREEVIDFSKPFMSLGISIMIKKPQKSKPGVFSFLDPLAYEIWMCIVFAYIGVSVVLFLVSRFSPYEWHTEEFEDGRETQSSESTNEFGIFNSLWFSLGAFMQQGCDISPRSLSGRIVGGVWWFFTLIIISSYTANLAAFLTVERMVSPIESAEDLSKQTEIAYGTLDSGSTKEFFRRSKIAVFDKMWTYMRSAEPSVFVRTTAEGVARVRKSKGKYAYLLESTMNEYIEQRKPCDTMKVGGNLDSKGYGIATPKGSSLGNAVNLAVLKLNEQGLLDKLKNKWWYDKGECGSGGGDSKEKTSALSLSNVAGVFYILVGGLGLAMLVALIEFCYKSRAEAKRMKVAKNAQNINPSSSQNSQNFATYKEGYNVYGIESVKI
T1 sequence (Q9Z2W8 whole entry, looked up): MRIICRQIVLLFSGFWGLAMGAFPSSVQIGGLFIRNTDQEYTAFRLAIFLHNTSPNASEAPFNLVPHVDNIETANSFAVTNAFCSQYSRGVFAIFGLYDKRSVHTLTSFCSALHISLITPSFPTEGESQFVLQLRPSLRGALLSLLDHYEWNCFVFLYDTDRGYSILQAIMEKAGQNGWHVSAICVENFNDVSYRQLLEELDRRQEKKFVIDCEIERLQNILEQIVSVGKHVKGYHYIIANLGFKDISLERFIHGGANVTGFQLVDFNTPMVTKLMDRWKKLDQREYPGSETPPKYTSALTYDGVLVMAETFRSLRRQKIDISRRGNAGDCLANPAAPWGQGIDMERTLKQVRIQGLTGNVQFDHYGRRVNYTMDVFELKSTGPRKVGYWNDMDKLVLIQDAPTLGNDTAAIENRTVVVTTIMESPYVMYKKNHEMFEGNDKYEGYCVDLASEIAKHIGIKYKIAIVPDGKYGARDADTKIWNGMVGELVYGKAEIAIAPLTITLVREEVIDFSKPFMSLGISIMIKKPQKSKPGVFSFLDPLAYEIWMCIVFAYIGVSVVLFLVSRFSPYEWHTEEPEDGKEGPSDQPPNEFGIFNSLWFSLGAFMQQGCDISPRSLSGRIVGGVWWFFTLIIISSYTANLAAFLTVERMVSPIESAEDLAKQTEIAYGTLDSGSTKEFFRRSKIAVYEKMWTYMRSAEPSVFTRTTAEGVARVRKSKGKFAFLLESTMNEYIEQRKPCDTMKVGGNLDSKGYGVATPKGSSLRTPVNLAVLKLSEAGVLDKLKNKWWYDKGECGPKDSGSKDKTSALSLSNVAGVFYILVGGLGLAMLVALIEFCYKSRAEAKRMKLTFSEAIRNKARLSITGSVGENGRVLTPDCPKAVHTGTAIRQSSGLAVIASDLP
T1 sequence (Q9Z2W9 whole entry, looked up): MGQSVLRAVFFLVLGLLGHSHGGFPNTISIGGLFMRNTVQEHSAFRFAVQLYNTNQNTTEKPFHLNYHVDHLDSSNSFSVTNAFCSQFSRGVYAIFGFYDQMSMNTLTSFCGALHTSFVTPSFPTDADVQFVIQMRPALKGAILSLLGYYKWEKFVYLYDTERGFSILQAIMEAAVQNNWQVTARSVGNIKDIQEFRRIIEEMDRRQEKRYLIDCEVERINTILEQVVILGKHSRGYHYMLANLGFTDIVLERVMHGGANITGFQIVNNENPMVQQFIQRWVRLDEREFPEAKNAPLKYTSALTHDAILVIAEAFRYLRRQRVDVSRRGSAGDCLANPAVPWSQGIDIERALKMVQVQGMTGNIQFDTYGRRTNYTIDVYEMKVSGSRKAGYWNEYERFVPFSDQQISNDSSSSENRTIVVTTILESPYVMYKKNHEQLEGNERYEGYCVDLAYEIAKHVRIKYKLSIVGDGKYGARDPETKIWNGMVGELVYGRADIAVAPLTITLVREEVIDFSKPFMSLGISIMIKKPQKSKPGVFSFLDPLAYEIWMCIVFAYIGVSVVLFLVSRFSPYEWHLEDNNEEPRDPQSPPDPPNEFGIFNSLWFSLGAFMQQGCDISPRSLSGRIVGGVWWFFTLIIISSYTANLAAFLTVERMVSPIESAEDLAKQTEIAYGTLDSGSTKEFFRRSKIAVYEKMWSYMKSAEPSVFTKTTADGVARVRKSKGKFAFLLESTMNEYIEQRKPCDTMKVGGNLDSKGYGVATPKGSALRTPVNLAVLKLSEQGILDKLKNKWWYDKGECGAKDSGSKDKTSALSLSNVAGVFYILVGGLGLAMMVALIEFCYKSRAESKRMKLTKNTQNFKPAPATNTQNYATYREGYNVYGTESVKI

| Structure (SMILES) | ED50 [1] [µmol/kg] | ED50 [2] [µmol/kg] |
| --- | --- | --- |
| COc1cc2c(cc1OC)C(c1ccc(Cl)cc1)=NN(C)C(=O)C2 | 41.2 | 38.6 |
| COc1cc2c(O)nnc(-c3cccc([N+](=O)[O-])c3)c2cc1OC | 81.7 | 75.5 |
| COc1cc2c(cc1OC)C(c1cccc(N)c1)=Nn1c(O)nnc1C2 | 20.1 | 13.1 |
| COc1cc2c(cc1OC)C(c1ccc(Cl)cc1)=NNC(=O)C2 | 102 | 75.3 |
| O=C1Cc2cc3c(cc2C(c2ccc(O)cc2)=NN1)OCO3 | 52.3 | 49.6 |
| COc1ccc2c(c1)CC(=O)NN=C2c1ccccc1 | 75.5 | 64.8 |
| COc1cc2c(cc1OC)C(c1ccc(N)cc1)=Nn1c(C)nnc1C2 | 59.9 | 44.7 |
| CNC(=O)N1N=C(c2ccc(N)cc2)c2cc3c(cc2CC1=O)OCO3 | 12.4 | 8.7 |
| COc1cc2c(O)nnc(-c3ccc(NC(C)=O)cc3)c2cc1OC | 62 | 48.8 |
| Nc1ccc(C2=NNC(=O)Cc3cc4c(cc32)OCO4)cc1 | 15.4 | 10.9 |
| COc1cc2c(cc1OC)C(c1cccc(N)c1)=NNC(=O)C2 | 19.3 | 18.3 |
| COc1cc2c(cc1OC)C(c1cccc([N+](=O)[O-])c1)N(C(C)=O)CC2 (configuration not stated) | 37.2 | 12.7 |
| COc1cc2c(cc1OC)C(c1ccc(Br)cc1)=NNC(=O)C2 | 110 | 82.5 |
| CCCNC(=O)n1nc(-c2ccc(N)cc2)c2cc3c(cc2c1=O)OCO3 | 15.8 | 6.82 |
| COc1ccc2c(c1)CC(=O)NN1C(c3ccccc3)=NOC21c1ccccc1 (configuration not stated) | 119 | 100 |
| Nc1cccc(C2=NNC(=O)Cc3cc4c(cc32)OCO4)c1 | 18 | 12.7 |
| COc1cc2c(cc1OC)C(c1ccc(Cl)cc1)NCC2 (configuration not stated) | 20.1 | 19.3 |
| Nc1ccc(-c2nnc(O)c3cc4c(cc23)OCO4)cc1 | 21.2 | 7.56 |
| COc1cc2c(cc1OC)C(c1ccc(N)cc1)=Nn1cnnc1C2 | 57.3 | 48.3 |
| COc1cc2c(cc1OC)C(c1ccccc1)=NN(C)C(=O)C2 | 37.8 | 26.7 |
| COc1cc2c(cc1OC)C(c1ccccc1)=NNC(=O)C2 | 33.9 | 31.8 |

| Structure (SMILES) | ED50 [1] [µmol/kg] | ED50 [2] [µmol/kg] |
| --- | --- | --- |
| SC1=NN=C(c2ccccc2)c2cc3c(cc2C1)OCO3 | 23.8 | 18.8 |
| COc1cc2c(cc1OC)C(c1cccc([N+](=O)[O-])c1)NCC2 (configuration not stated) | 19.3 | 7.19 |
| COc1cc2c(cc1OC)C(c1cccc(N)c1)=NN=C(S)C2 | 18.8 | 9.1 |
| COc1cc2c(-c3cccc(N)c3)nn(C)c(=O)c2cc1OC | 63.7 | 55.2 |
| COc1cc2c(cc1OC)C(c1ccc(N)cc1)=NN(C)C(=O)C2 | 50.2 | 43.7 |
| COc1cc2c(cc1OC)C(c1ccc(N)cc1)=Nn1c(O)nnc1C2 | 16.1 | 10.2 |
| O=C1Cc2cc3c(cc2C(c2ccc(F)cc2)=NN1)OCO3 | 89.8 | 63.8 |
| COc1cc2c(cc1OC)C(c1ccc(F)cc1)=Nn1c(O)nnc1C2 | 32.1 | 21.8 |
| CN1N=C(c2ccc(N)cc2)c2cc3c(cc2CC1=O)OCO3 | 41.1 | 29.5 |
| COc1cc2c(cc1OC)C(c1ccccc1)=NN(C(C)=O)C(=O)C2 | 101 | 72.1 |
| COc1cc2c(cc1OC)C(c1ccc(N(C(C)=O)C(C)=O)cc1)=NN(C(C)=O)C(=O)C2 | 56.8 | 43.9 |
| COc1cc2c(O)nnc(-c3ccc(N)cc3)c2cc1OC | 60.5 | 52 |
| CNC(=O)n1nc(-c2ccc(N)cc2)c2cc3c(cc2c1=O)OCO3 | 23.4 | 16.8 |
| COc1cc2c(cc1OC)C(c1cccc(N)c1)=NN(C)C(=O)C2 | 36.8 | 30.6 |
| COc1cc2c(cc1OC)C(c1ccc(Br)cc1)=NN(C)C(=S)C2 | 105 | 60.4 |
| COc1cc2c(cc1OC)C(c1ccc(N)cc1)=NN(C)C(=S)C2 | 29.8 | 20.3 |
| O=C1Cc2cc3c(cc2C(c2ccccc2)=NN1)OCO3 | 43.3 | 40.6 |
| CC1=NN=C(c2ccc(N)cc2)c2cc3c(cc2C1)OCO3 | 35.8 | 25.3 |
| COc1cc2c(cc1OC)C(c1ccc([N+](=O)[O-])cc1)=Nn1c(C)nnc1C2 | 66.7 | 59.3 |
| Nc1cccc(-c2nnc(O)c3cc4c(cc23)OCO4)c1 | 23.3 | 15.7 |
| COc1cc2c(cc1OC)C(c1ccc(N)cc1)=NN=C(S)C2 | 6.3 | 3.3 |

| Structure (SMILES) | ED50 [1] [µmol/kg] | ED50 [2] [µmol/kg] |
| --- | --- | --- |
| COc1cc2c(cc1OC)C(c1ccc(N)cc1)=NNC(=O)C2 | 15 | 12.6 |
| COc1cc2c(O)nnc(-c3cccc(N)c3)c2cc1OC | 68.3 | 59.9 |
| COc1cc2c(cc1OC)C(c1ccc(F)cc1)=NNC(=O)C2 | 78 | 57.2 |
| COc1cc2c(cc1OC)C(c1ccc(Br)cc1)=NN(C)C(=O)C2 | 63 | 38 |
| COc1cc2c(cc1OC)C(c1ccc([N+](=O)[O-])cc1)NCC2 (configuration not stated) | 100 | 56.1 |
| COc1cc2c(cc1OC)C(c1ccc([N+](=O)[O-])cc1)=NN(C)C(=S)C2 | 103 | 81.5 |
| COc1cc2c(cc1OC)C(c1ccc([N+](=O)[O-])cc1)=NN=C(S)C2 | 93.4 | 69.8 |
| Oc1nnc(-c2ccccc2)c2cc3c(cc12)OCO3 | 36.7 | 31.3 |
| COc1cc2c(cc1OC)C(c1ccc(Br)cc1)NCC2 (configuration not stated) | 30.6 | 12.5 |
| COc1cc2c(cc1OC)C(c1ccc([N+](=O)[O-])cc1)=Nn1c(O)nnc1C2 | 74.1 | 58.3 |
| COc1cc2c(-c3cccc([N+](=O)[O-])c3)nn(C)c(=O)c2cc1OC | 110 | 80.3 |
| COc1cc2c(cc1OC)C(c1cccc([N+](=O)[O-])c1)=Nn1c(O)nnc1C2 | 56.4 | 43.2 |
| COc1cc2c(cc1OC)C(c1ccccc1)=NN=C(S)C2 | 19.7 | 15 |
| COc1cc2c(cc1OC)C(c1ccccc1)=NN(C)C(=S)C2 | 30.6 | 24.7 |
| COc1cc2c(cc1OC)C(c1ccccc1)=Nn1c(O)nnc1C2 | 44.6 | 27.5 |
| COc1cc2c(cc1OC)C(c1ccc(Br)cc1)=NN=C(S)C2 | 52.1 | 33.3 |
| CN1N=C(c2ccccc2)c2cc3c(cc2CC1=O)OCO3 | 82.5 | 70.4 |
| COc1cc2c(cc1OC)C(c1ccc(Cl)cc1)=NN=C(S)C2 | 82.4 | 55 |
| COc1ccc2c(c1)CC(=O)N(C)N=C2c1ccccc1 | 117 | 99.1 |
